# From patent publication US20130065964A1, “PERITONEAL DIALYSIS SOLUTION” (UNIVERSIDAD DE CASTILLA LA MANCHA, priority 2010, published 2013)
# Experiments:
# Test in all cases: Real-time RT-PCR in PMCs from dialysed rats
# Assay type in all cases: in vivo, rat
# Bcl-2 = conditions: peritoneal cells from rats dialysed four weeks, aliskiren 0.1 or 1 mg/Kg, FIG. 16
# Description: (§1) The rats were exposed daily for four weeks to carrier (saline serum), 1.5% PDF, 2.3% PDF or 4.5% PDF supplemented by carrier, 0.1 mg/Kg aliskiren or 1 mg/Kg aliskiren. The data is expressed as mean±SEM, n=6 rats per group. * p<0.05, compared to the group treated with carrier in the absence of aliskiren (carrier). # p<0.05, compared to their respective groups treated with PDFs in the absence of aliskiren.
# (§2) For in vivo studies, 78 female rats of the Sprague-Dawley female strain weighing 200-240 g (Charles River Breeding Laboratories) were used: fifty-four rats were assigned to the group of animals which had been administered high-glucose peritoneal dialysis solutions (PDF), which were divided into three different subgroups with eighteen rats each which were administered, respectively, three PDFs having different glucose concentrations (Fresenius Medical Car, Bad Homburg, Germany). Additionally, eighteen rats were administered a carrier (saline serum) and another six rats were used as a control group (not dialysed). […]
# (§3) At the end of the experimental period (four weeks), 30 ml of a commercial PDF with 2.3% glucose (Fresenius Medical Car, Bad Homburg, Germany) was administered intraperitoneally using a 22G needle. […] Their body weight was measured at the start and end of the experimental period. […]
# (§4) The blood and dialysate samples were centrifuged and stored at −20° C. The concentrations of creatinine and glucose in the serum and dialysate were measured using enzymatic methods. The peritoneal transport of solutes was calculated, on one hand, as the glucose concentration in the dialysate 2 hours after the PET relative to the initial glucose concentration in the PDF (D2/D0 glucose) and, on the other, as the dialysate/plasma creatinine concentration ratio (D2/P2 creatinine) 2 h after the PET. […]
# (§5) The RNA expression was evaluated by real-time RT-PCR in PMCs. […] RNA quality and concentration was evaluated by spectrophotometry (Infinite 200, Tecan, Salzburg, Austria) using 1 μl of the RNA sample. […]
# Collagen III = conditions: peritoneal cells from rats dialysed four weeks, aliskiren 0.1 or 1 mg/Kg, FIG. 18
# Description: as §1, §2, §3, §4, §5
# BAX = conditions: peritoneal cells from rats dialysed four weeks, aliskiren 0.1 or 1 mg/Kg, FIG. 15
# Description: as §1, §2, §3, §4, §5
compound,measurement,setting,value
COCCCOc1cc(C[C@@H](C[C@H](N)[C@@H](O)C[C@H](C(=O)NCC(C)(C)C(N)=O)C(C)C)C(C)C)ccc1OC [aliskiren],RNAm expression of anti-apoptotic protein Bcl-2,Bcl-2,increased
same,RNAm expression of collagen III,Collagen III,increased
same,RNAm expression of pro-apoptotic protein Bax,BAX,reduced
